Paper PMC6770071, “XIAP as a Target of New Small Organic Natural Molecules Inducing Human Cancer Cell Death” (Cancers, 2019)
In brackets after ≈: the same amount, converted by molar mass.

Columns and labels:
A549 cells = experiment: MTT cell viability assay, A549 lung cancer cells; assay type: cell-based; conditions: Homo sapiens, 24 h
Procedure: (§1) Human U373 glioma, MCF7 breast cancer, A549 lung cancer and PC-3 prostate cancer cells were grown in Dulbecco’s Modified Eagle Medium (DMEM), supplemented with 10% foetal bovine serum, 2 mM glutamine, 100 U/mL penicillin/streptomycin, at 37 °C in a humidified atmosphere containing 5% CO2 (logarithmic growth phase, routine passages every 3 days). The human breast epithelial cell line MCF10 was cultured in DMEM/F12 Ham’s Mixture supplemented with 5% horse serum, epithelial growth factor 20 ng/mL, insulin 10 μg/mL, hydrocortisone 0.5 mg/mL, cholera toxin 100 ng/mL, and 100 U/mL penicillin/streptomycin. […]
(§2) U373, MCF7, A549, PC-3, HUVEC, and MCF10 cell viability was determined by MTT assay using published protocols. MTT absorbance was quantified spectrophotometrically using a Glomax Multi Detection System microplate reader (Promega, Milano, Italy).
(§3) Statistical significance of raw data between the groups in each experiment was evaluated using unpaired Student’s t-test (single comparisons) or one-way ANOVA followed by the Newman-Keuls post-test (multiple comparisons). The IC50 and Emax concentration were determined by non-linear regression curve analysis of the concentration-effect responses. […] The results were expressed as means ± standard error of mean (SEM) of the indicated n values.

MCF10 cells = experiment: MTT cell viability assay, MCF10 cells; assay type: cell-based; conditions: Homo sapiens, 24 h, non-tumourigenic breast MCF10 cells
Procedure: as §1, §2, §3

caspase 9 and 7 = experiment: Cleaved-caspase 9 and 7 western blot / immunofluorescence in MCF7 cells; assay type: cell-based, human; conditions: gibbilimbol B/eriopodol A 30 µg/mL, erioquinol 10 µg/mL; for cleaved-caspase 7 staining, immunofluorescence: MCF7, 3 and 6 h; for caspase activation, western blot: MCF7, 3 h and 6 h
Procedure: (§4) Using published protocols, MCF7 or U373 cells cultured in 120-mm coverslips were fixed in 4% paraformaldehyde in 0.1 M PB, pH 7.4, for 10 min. Cells were pre-incubated for 1 h min with 5% of normal goat serum (Life Technologies, Monza, Italy) in 0.1 M PB (pH 7.4) containing 0.1% Triton X-100, before overnight incubation with the rabbit monoclonal anti-cleaved caspase 7 (Cell Signaling Technology, Danvers, MA, USA). In double-label immunofluorescence experiments, the mouse monoclonal anti-cytochrome c primary antibody (Cell Signaling Technology) was used in conjunction with the rabbit monoclonal primary antibody directed to COX IV (Cell Signaling Technology). For fluorescence detection, coverslips were stained with the appropriate Alexa Fluor secondary antibodies (Life Technologies) and mounted on glass slides in a ProLong Gold Antifade Mountant (Life Technologies). DAPI and/or fluorescein phalloidin (cytoskeleton detection) staining was also used. Cells were analysed with a DMI4000 B automated inverted microscope equipped with a DCF310 digital camera (Leica Microsystems, Wetzlar, Germany). When indicated, confocal imaging was performed with a TCS SP8 System (Leica Microsystems). Image acquisitions were controlled by the Leica Application Suite X.
(§5) Using published protocols, MCF7 and MCF10 cells were homogenised in RIPA lysis buffer, supplemented with a cocktail of protease inhibitors (cOmplete; Roche Diagnostics, Milano, Italy). Equal amounts of proteins were separated by 4–20% SDS-polyacrylamide gel electrophoresis (Criterion TGX Stain-free precast gels and Criterion Cell system; Bio-Rad, Hercules, CA, USA) and transferred onto nitrocellulose membrane using a Bio-Rad Trans-Blot Turbo System. When indicated, the membranes were probed using the rabbit monoclonal anti-cleaved caspase 7 and anti-XIAP (Cell Signaling Technology) primary antibodies. After the incubation with the appropriate horseradish-peroxidase-conjugated secondary antibody (Cell Signaling Technology), bands were visualised using the Clarity Western ECL substrate with a ChemiDoc MP imaging system (Bio-Rad). To monitor for potential artefacts in loading and transfer among samples in different lanes, the blots were routinely treated with the Restore Western Blot Stripping Buffer (ThermoFisher Scientific) and re-probed with the goat anti-Lactate dehydrogenase (LDH)-A (Santa Cruz Biotechnology) and the mouse anti-vinculin primary antibodies. The stain-free gel was used as loading control as well. When appropriated, bands were quantified for densitometry using the Bio-Rad Image Lab software.

U373 cells = experiment: TMRM mitochondrial membrane potential analysis, U373 cells; assay type: cell-based, human; conditions: U373, increasing time; gibbilimbol B/eriopodol A 30 µg/mL, erioquinol 10 µg/mL
Procedure: Using published protocols, mitochondria of MCF7 and U373 cells were labeled using TMRM, a voltage-sensitive cationic lipophilic dye, partitioning and accumulating in the mitochondrial matrix based upon the Nernst equation. After treatments, cells were trypsinised, counted and incubated with 100 nM TMRM for 30 min at 37 °C. Fluorescence was measured by using a Glomax Multi Detection System microplate reader (Promega), excitation wavelength: 525 nm; emission wavelength: 580–640 nm). After background subtraction, the data were normalised on cell number.

XIAP = XIAP expression by real-time PCR and western blot in MCF7 cells; assay type: cell-based, human; conditions: MCF7, increasing times, gibbilimbol B/eriopodol A 30 μg/mL, erioquinol 10 µg/mL; for XIAP mRNA levels: real-time PCR; for XIAP protein levels: western blot
Source text: as §5
The analysis of mRNA expression was performed as previously described. Briefly, total RNA from MCF7 cells was extracted with the High Pure RNA Isolation Kit (Roche Applied Science, Mannheim, Germany), according to the manufacturer’s protocol. First-strand cDNA was generated from 1 μg of total RNA using iScript Reverse Transcription Supermix (Bio-Rad). Primer pairs (Eurofins Genomics, Milano, Italy) for XIAP (NM_001167; forward ACCGTGCGGTGCTTTAGTT, reverse […]) and β-actin (NM_001101; forward […], reverse CACCTTCTACAAT GAGCTGCGTGTG) were designed to hybridise to unique regions of the appropriate gene sequence. PCR was performed using SsoAdvanced Universal SYBR Green Supermix and the CFX96 Touch Real-Time PCR Detection System (Bio-Rad). The fold change was determined relative to the selected control sample after normalising to β-actin (internal standard) by the formula 2^−ΔΔCT.

MCF7 cells = experiment: MTT assay and cleaved-caspase 7 western blot in XIAP siRNA-transfected MCF7 cells treated with compounds; assay type: cell-based, human; conditions: MCF7, XIAP siRNA 50 nM 24 h; for toxicity (MTT absorbance) after XIAP downregulation: then 6 h, gibbilimbol B/eriopodol A 30 μg/mL, erioquinol 10 μg/mL
Procedure: as §2, §5
Gene silencing of XIAP in MCF7 cells was performed as previously published. Briefly, according to the manufacturer’s protocol, iBONI siRNA Pool (Riboxx, Radebeul, Germany) targeting human XIAP were mixed to Lipofectamine RNAiMax transfection reagent (Life Technologies). iBONI siRNA Pool negative control (Riboxx) (scrambled targeting siRNAs) was also used. The mix was added to cultured MCF7 cells at a siRNA concentration of 50 nM for 24 h.

caspase 7 = experiment: Cleaved-caspase 7 immunofluorescence in U373 cells; assay type: cell-based, human; conditions: U373, 6 h; gibbilimbol B/eriopodol A 30 µg/mL, erioquinol 10 µg/mL
Procedure: as §4

Structure (SMILES)	IC50 (A549 cells)	IC50 (MCF10 cells)	cleaved-caspase 7 staining, immunofluorescence (caspase 9 and 7)	caspase activation, western blot (caspase 9 and 7)	TMRM fluorescence (mitochondria membrane potential) (U373 cells)	XIAP mRNA levels (XIAP)	XIAP protein levels (XIAP)	toxicity (MTT absorbance) after XIAP downregulation (MCF7 cells)	activation of caspase 7 (caspase 7)	caspase 7 activity after XIAP silencing (MCF7 cells; then 30 μg/mL for 6 h)
CCCCCC/C=C\CCC1(O)C=CC(=O)C=C1 [Erioquinol, (Z)-4-(dec-3′-enyl)-4-hydroxycyclohexa-2,5-dien-1-one]	2.65 µg/mL (≈ 10.7 µM)	1.7 µg/mL (≈ 6.84 µM)	positive cells were absent	did not display any sign of caspase 7 activity	comparable decrease in TMRM fluorescence vs. control	did not significantly modify	did not significantly modify	significantly enhanced the toxicity		
CCCCCC/C=C/CCc1ccc(O)cc1 [Gibbilimbol B, (E)-4-(dec-3′-enyl)phenol]		17.1 µg/mL (≈ 73.6 µM)	intensive cleaved-caspase 7 staining	activation of caspase 9 and 7	comparable decrease in TMRM fluorescence vs. control	did not significantly modify	did not significantly modify	significantly enhanced the toxicity	activation of caspase 7	robustly increased
